{"source": "the C3SDB collision cross section collection", "data": [{"details": "[M+H]+; instrument: TW; Major Mix IMS/Tof Calibration Kit (Waters)", "units": {"collision cross section (N2)": "Å²"}, "values": [{"compound": "CCN(CC)CCc1c[nH]c2ccccc12", "note": "[\"NN-Diethyltryptamine\"]", "collision cross section (N2)": 148.6}, {"compound": "CN(C)CCc1c[nH]c2ccccc12", "note": "[\"NN-Dimethyltryptamine\"]", "collision cross section (N2)": 143.5}, {"compound": "Cc1ccc(/C(=C\\CN2CCCC2)c2cccc(/C=C/C(=O)O)n2)cc1", "note": "[Acrivastine]", "collision cross section (N2)": 193.9}, {"compound": "COc1cc2nc(N(C)CCCNC(=O)C3CCCO3)nc(N)c2cc1OC", "note": "(centres undefined) [Alfuzosin]", "collision cross section (N2)": 194.6}, {"compound": "OCc1nnc2n1-c1ccc(Cl)cc1C(c1ccccc1)=NC2", "note": "[Alprazolam-M alpha-Hydroxy]", "collision cross section (N2)": 173.3}, {"compound": "C=CCc1ccccc1OCC(O)CNC(C)C", "note": "(centres undefined) [Alprenolol]", "collision cross section (N2)": 159.5}, {"compound": "CCCCc1oc2ccccc2c1C(=O)c1cc(I)c(OCCN(CC)CC)c(I)c1", "note": "[Amiodarone]", "collision cross section (N2)": 226.4}, {"compound": "CN(C)CC/C=C1\\c2ccccc2CC(O)c2ccccc21", "note": "(centres undefined) [Amitriptylin-M (E)-10-hydroxy]", "collision cross section (N2)": 167.6}, {"compound": "CN(C)CCC=C1c2ccccc2CCc2ccccc21", "note": "[Amitriptyline]", "collision cross section (N2)": 167.2}, {"compound": "CCOC(=O)C1=C(COCCN)NC(C)=C(C(=O)OC)C1c1ccccc1Cl", "note": "(centres undefined) [Amlodipine]", "collision cross section (N2)": 188}, {"compound": "Clc1ccc2c(c1)C(N1CCNCC1)=Nc1ccccc1O2", "note": "[Amoxapine]", "collision cross section (N2)": 170.2}, {"compound": "NCC(CC(=O)O)c1ccc(Cl)cc1", "note": "(centres undefined) [Baclofen]", "collision cross section (N2)": 149.2}, {"compound": "C[C@@H](Cc1ccccc1)N(C)Cc1ccccc1", "note": "[Benzphetamine]", "collision cross section (N2)": 154.8}, {"compound": "CN1[C@@H]2CC[C@H]1C[C@@H](OC(c1ccccc1)c1ccccc1)C2", "note": "[Benztropine]", "collision cross section (N2)": 180.8}, {"compound": "CC(C)NCC(O)COc1ccc(COCCOC(C)C)cc1", "note": "(centres undefined) [Bisoprolol]", "collision cross section (N2)": 192.2}, {"compound": "CCC(NC)C(=O)c1ccc2c(c1)OCO2", "note": "(centres undefined) [Butylone]", "collision cross section (N2)": 151}, {"compound": "CCC(Br)(CC)C(=O)NC(N)=O", "note": "[Carbromal]", "collision cross section (N2)": 139.8}, {"compound": "Clc1ccc(C(c2ccccc2)N2CCNCC2)cc1", "note": "(centres undefined) [Cetirizine-M N-desalkyl]", "collision cross section (N2)": 168.4}, {"compound": "CCN(CC)CCCC(C)Nc1ccnc2cc(Cl)ccc12", "note": "(centres undefined) [Chloroquine]", "collision cross section (N2)": 176.8}, {"compound": "CN(C)CC/C=C1/c2ccccc2Sc2ccc(Cl)cc21", "note": "[Chlorprothixene]", "collision cross section (N2)": 170.1}, {"compound": "C(=C\\c1ccccc1)/CN1CCN(C(c2ccccc2)c2ccccc2)CC1", "note": "[Cinnarizine]", "collision cross section (N2)": 206.2}, {"compound": "CNCCC[C@@]1(c2ccc(F)cc2)OCc2cc(C#N)ccc21", "note": "[Citalopram-M N-desmethyl]", "collision cross section (N2)": 178.7}, {"compound": "Clc1cccc(Cl)c1NC1=NCCN1", "note": "[Clonidine]", "collision cross section (N2)": 144}, {"compound": "Clc1ccc2c(c1)N=C(N1CCNCC1)c1ccccc1N2", "note": "[Clozapine-M nor]", "collision cross section (N2)": 173.8}, {"compound": "Clc1ccc2c(c1)CCc1cccnc1C2=C1CCNCC1", "note": "[Desloratadine]", "collision cross section (N2)": 175.5}, {"compound": "CN(C)CC(c1ccc(O)cc1)C1(O)CCCCC1", "note": "(centres undefined) [Desvenlafaxine]", "collision cross section (N2)": 166.7}, {"compound": "Cc1cccc(Cc2cnc[nH]2)c1C", "note": "[Detomidine]", "collision cross section (N2)": 146.8}, {"compound": "COc1ccc2c3c1O[C@H]1[C@@H](O)CC[C@H]4[C@@H](C2)N(C)CC[C@@]341", "note": "[Dihydrocodeine]", "collision cross section (N2)": 168.6}, {"compound": "COc1ccc([C@@H]2Sc3ccccc3N(CCN(C)C)C(=O)[C@@H]2OC(C)=O)cc1", "note": "[Diltiazem]", "collision cross section (N2)": 197.8}, {"compound": "CC(CCc1ccc(O)cc1)NCCc1ccc(O)c(O)c1", "note": "(centres undefined) [Dobutamine]", "collision cross section (N2)": 168.2}, {"compound": "CCN1CC(CCN2CCOCC2)C(c2ccccc2)(c2ccccc2)C1=O", "note": "(centres undefined) [Doxapram]", "collision cross section (N2)": 183.4}, {"compound": "CN(C)CCC=C1c2ccccc2COc2ccccc21", "note": "[Doxepin]", "collision cross section (N2)": 164.3}, {"compound": "CN1CCC[C@@H]1Cc1c[nH]c2ccc(CCS(=O)(=O)c3ccccc3)cc12", "note": "[Eletriptan]", "collision cross section (N2)": 186.1}, {"compound": "N=C(N)Nc1nc(CSCCC(=N)NS(N)(=O)=O)cs1", "note": "[Famotidine]", "collision cross section (N2)": 165.9}, {"compound": "O=C(NCC1CCCCN1)c1cc(OCC(F)(F)F)ccc1OCC(F)(F)F", "note": "(centres undefined) [Flecainide]", "collision cross section (N2)": 192.2}, {"compound": "OC(Cn1cncn1)(Cn1cncn1)c1ccc(F)cc1F", "note": "[Fluconazole]", "collision cross section (N2)": 163.9}, {"compound": "CCOC(=O)c1ncn2c1CN(C)C(=O)c1cc(F)ccc1-2", "note": "[Flumazenil]", "collision cross section (N2)": 165.8}, {"compound": "CNCCC(Oc1ccc(C(F)(F)F)cc1)c1ccccc1", "note": "(centres undefined) [Fluoxetine]", "collision cross section (N2)": 176.5}, {"compound": "COCCCC/C(=N\\OCCN)c1ccc(C(F)(F)F)cc1", "note": "[Fluvoxamine]", "collision cross section (N2)": 177}]}]}
